Like-named read-outs stand apart in the source and are kept apart here.
System: E. coli (strains ATCC BAA 1427, 1428, 1429, 1430 and 1431)
Type: cell-based
Design: key: + = Growth; −1 = Inhibition; − = No Growth
Protocol: A microtiter experiment was conducted to evaluate the pathogen killing effect of the following pathogen killing agents: (1) about 100 μL of non-live-bacteria concentrate having dead bacteria alone (obtained from Example 8), (2) a blend of about 50 μL of non-live-bacteria concentrate having dead bacteria (obtained from Example 8), and about 50 μL of approximately 0.1 M lactic acid, or (3) about 100 μL of approximately 0.1 M lactic acid alone when added into Swanson® chicken broth and a source of pathogens.
About 100 μL chicken broth was added into microtiter wells 1 through 12. The pathogen killing agents were added at about 100 μL into wells 1 and 2. About 100 μL from the mixture of pathogen killing agent and chicken broth were then added to well 3 and then repeated thereafter to create the following dilutions, by volume, until well 11: 1:1, 1:2, 1:4, 1:8, 1:16, 1:32, 1:64, 1:128, 1:256, 1:512, and 1:1024. Next, into all microtiter wells, about 50 μL of a solution containing E. coli (strains ATCC BAA 1427, 1428, 1429, 1430 and 1431) were added such that an approximately 1×10^5 cfu/gram concentration of E. coli in each well was obtained. Well 12 served as the positive control by having no pathogen killing agent added. Microtiter plates containing the wells described above were then placed into an incubator at about 35° C. for either about 24 or about 48 hours. After the appropriate incubation time, microtiter plates were removed from the incubator and the color indicator (about 50 μL iodonitrotetrazolium salt reagent) was added into each well and the microtiter plate placed back into the incubator at about 35° C. for about an additional 4 hours to produce the desired color change reaction. Upon removal from the incubator, the color change and pH in each well were recorded.

For `CC(O)C(=O)O` (stereo not shown) [Lactic Acid, lactic acid], the “Microtiter well result, E. coli growth” value (dilution 1:1, After Incubating at 35° C. for 24 hours) was “−”, the “Microtiter well result, E. coli growth” value (dilution 1:1, After Incubating at 35° C. for 48 hours) was “−” and the “Microtiter well result, E. coli growth” value (dilution 1:2, After Incubating at 35° C. for 24 hours) was “−”. The “Microtiter well result, E. coli growth” value (dilution 1:2, After Incubating at 35° C. for 48 hours) was “−”, the “Microtiter well result, E. coli growth” value (dilution 1:4, After Incubating at 35° C. for 24 hours) was “−” and the “Microtiter well result, E. coli growth” value (dilution 1:4, After Incubating at 35° C. for 48 hours) was “+”. The “Microtiter well result, E. coli growth” value (dilution 1:8, After Incubating at 35° C. for 24 hours) was “−”, the “Microtiter well result, E. coli growth” value (dilution 1:8, After Incubating at 35° C. for 48 hours) was “+” and the “Microtiter well result, E. coli growth” value (dilution 1:16, After Incubating at 35° C. for 24 hours) was “−”. The “Microtiter well result, E. coli growth” value (dilution 1:16, After Incubating at 35° C. for 48 hours) was “+”, the “Microtiter well result, E. coli growth” value (dilution 1:32, After Incubating at 35° C. for 24 hours) was “−” and the “Microtiter well result, E. coli growth” value (dilution 1:32, After Incubating at 35° C. for 48 hours) was “+”. The “Microtiter well result, E. coli growth” value (dilution 1:64, After Incubating at 35° C. for 24 hours) was “−”, the “Microtiter well result, E. coli growth” value (dilution 1:64, After Incubating at 35° C. for 48 hours) was “+” and the “Microtiter well result, E. coli growth” value (dilution 1:128, After Incubating at 35° C. for 24 hours) was “+”. The “Microtiter well result, E. coli growth” value (dilution 1:128, After Incubating at 35° C. for 48 hours) was −1, the “Microtiter well result, E. coli growth” value (dilution 1:256, After Incubating at 35° C. for 24 hours) was “+” and the “Microtiter well result, E. coli growth” value (dilution 1:256, After Incubating at 35° C. for 48 hours) was “+”. For the same compound, the “Microtiter well result, E. coli growth” value (dilution 1:512, After Incubating at 35° C. for 24 hours) was “+”, the “Microtiter well result, E. coli growth” value (dilution 1:512, After Incubating at 35° C. for 48 hours) was “+” and the “Microtiter well result, E. coli growth” value (dilution 1:1024, After Incubating at 35° C. for 24 hours) was “+”. For the same compound, the “Microtiter well result, E. coli growth” value (dilution 1:1024, After Incubating at 35° C. for 48 hours) was “+”.
